Measured values published in patent publication US9642869B2, “Boronic acid derivatives and therapeutic uses thereof” (Rempex Pharmaceuticals, Inc., priority 2013, dated 2017).
Read-outs that look alike come from different tables or passages of the source.

Columns and labels:
CTX-M-14 KP1005 = format: cell-based
CTX-M-15 KP1009 [1] = format: cell-based
[2] = Intravenous pharmacokinetics; format: in vivo; details: rat, plasma, rats, IV infusion over 0.5 hours, read-out: Free Cl (converted)
Method: Rats (n=3 per compound) were administered by a single infusion. IV doses were infused over 0.5 hours via an indwelling femoral vein cannula. Plasma (˜0.3 mL) samples were collected from each rat at designated time points up to 24 hours. Blood samples were centrifuged within 5 min of collection at 12000 g for 5 min to obtain plasma. The plasma samples were stored at −80° C. until analyzed. Data were analyzed using WinNonlin.

SHV-12 = SHV-12 (Klebsiella pneumoniae, UniProt P0AD64, E235K/G234S/L31Q); experiment: Inhibition of nitrocefin cleavage by purified enzyme (Ki); format: biochemical; details: nitrocefin reporter substrate, 10 min preincubation; read-out: Ki (SHV-12, NCF)
Method: Purified enzymes were mixed with various concentrations of inhibitors in reaction buffer and incubated for 10 min at room temperature. Nitrocefin was added and substrate cleavage profiles were recorded at 490 nm every 10 sec for 10 min.

SHV-5 ec308 [3] = experiment: Aztreonam potentiation (MPC@4); format: cell-based; details: minimum BLI concentration inhibiting growth with 4 μg/mL aztreonam
CMY-6 EC1010 = experiment: Aztreonam potentiation (MPC@4); format: cell-based; details: minimum BLI concentration inhibiting growth with 4 μg/mL aztreonam
SHV-5 ec308 [4] = format: cell-based; details: minimum BLI concentration inhibiting growth with tigemonam at 4 μg/mL
OXA-48 KP1086 = experiment: Biapenem potentiation (MPC@1); format: cell-based; details: minimum BLI concentration inhibiting growth with 1 μg/mL biapenem
Method: (§1) Biapenem was present in the test medium at 1 μg/mL. […] Table 3 summarizes the BLI potency of biapenem potentiation (MPC@1) for two strains overexpressing class A (KPC) and class D (OXA-48) carbapenemases. Biapenem MIC for each strain is also shown.

KP1004 KPC-2 = experiment: Biapenem potentiation (MPC@1); format: cell-based; details: minimum BLI concentration inhibiting growth with 1 μg/mL biapenem
Method: as §1

TEM-10 ec302 = format: cell-based
KPC-2 KP1004 = experiment: Aztreonam potentiation (MPC@4); format: cell-based; details: minimum BLI concentration inhibiting growth with 4 μg/mL aztreonam
ECL1002 [5] = format: cell-based; details: minimum BLI concentration inhibiting growth with tigemonam at 4 μg/mL
ECL1002 [6] = experiment: Aztreonam potentiation (MPC@4); format: cell-based; details: minimum BLI concentration inhibiting growth with 4 μg/mL aztreonam
CTX-M-15 KP1009 [7] = experiment: Aztreonam potentiation (MPC@4); format: cell-based; details: minimum BLI concentration inhibiting growth with 4 μg/mL aztreonam

SHV-12, sequence (P0AD64 22-286 L31Q/G234S/E235K): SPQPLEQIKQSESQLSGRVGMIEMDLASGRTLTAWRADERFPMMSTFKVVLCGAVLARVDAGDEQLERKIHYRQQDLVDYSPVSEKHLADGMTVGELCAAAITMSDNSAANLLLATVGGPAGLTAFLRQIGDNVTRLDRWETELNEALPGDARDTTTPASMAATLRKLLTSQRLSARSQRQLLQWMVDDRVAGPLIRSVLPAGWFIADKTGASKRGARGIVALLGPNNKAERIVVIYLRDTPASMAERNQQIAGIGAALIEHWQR

Structure (SMILES) | TIG MPC4 CTX-M-14 KP1005 (CTX-M-14 KP1005) | TIG MPC4 CTX-M-15 KP1009 (CTX-M-15 KP1009 [1]) | clearance ([2]; dose 20 mg/kg) [mL/min/kg] | Ki (SHV-12) [nM] | AZT MPC4 SHV-5 ec308 (SHV-5 ec308 [3]) | AZT MPC4 CMY-6 EC1010 (CMY-6 EC1010) | TIG MPC4 SHV-5 ec308 (SHV-5 ec308 [4]) | BPM MPC1 OXA-48 KP1086 (OXA-48 KP1086) | BPM MPC1 KP1004 KPC-2 (KP1004 KPC-2) | TIG MPC4 TEM-10 ec302 (TEM-10 ec302) | AZT MPC4 KPC-2 KP1004 (KPC-2 KP1004) | TIG MPC4 ECL1002 (ECL1002 [5]) | AZT MPC4 ECL1002 (ECL1002 [6]) | AZT MPC4 CTX-M-15 KP1009 (CTX-M-15 KP1009 [7]) | clearance ([2]; dose 10 mg/kg) [mL/min/kg]
O=C(CSC(F)F)N[C@H]1Cc2cccc(C(=O)O)c2OB1O [Compound 3, (R)-3-(2-(difluoromethylthio)acetamido)-2-hydroxy-3,4-dihydro-2H-benzo[e][1,2]oxaborinine-8-carboxylic acid] | X (key: X: MIC of less than 1 μg/mL; Y: MIC of 1 μg/mL to 10 μg/mL; Z: MIC of greater than 10 μg/mL) | X (key: X: MIC of less than 1 μg/mL; Y: MIC of 1 μg/mL to 10 μg/mL; Z: MIC of greater than 10 μg/mL) | 40.8 | < 1 | X (MIC of less than 1 μg/mL) | X (MIC of less than 1 μg/mL) | X (MIC of less than 1 μg/mL) | Y (MIC of 1 μg/mL to 10 μg/mL) | X (MIC of less than 1 μg/mL) | Y (key: X: MIC of less than 1 μg/mL; Y: MIC of 1 μg/mL to 10 μg/mL; Z: MIC of greater than 10 μg/mL) | Y (MIC of 1 μg/mL to 10 μg/mL) | Y (MIC of 1 μg/mL to 10 μg/mL) | Y (MIC of 1 μg/mL to 10 μg/mL) | – | –
O=C(Cc1cccs1)N[C@H]1Cc2cccc(C(=O)O)c2OB1O [CPD A, reference compound] | Y (key: X: MIC of less than 1 μg/mL; Y: MIC of 1 μg/mL to 10 μg/mL; Z: MIC of greater than 10 μg/mL) | Y (key: X: MIC of less than 1 μg/mL; Y: MIC of 1 μg/mL to 10 μg/mL; Z: MIC of greater than 10 μg/mL) | – | < 1 | X (MIC of less than 1 μg/mL) | Y (MIC of 1 μg/mL to 10 μg/mL) | Y (MIC of 1 μg/mL to 10 μg/mL) | Y (MIC of 1 μg/mL to 10 μg/mL) | X (MIC of less than 1 μg/mL) | Z (key: X: MIC of less than 1 μg/mL; Y: MIC of 1 μg/mL to 10 μg/mL; Z: MIC of greater than 10 μg/mL) | Y (MIC of 1 μg/mL to 10 μg/mL) | Y (MIC of 1 μg/mL to 10 μg/mL) | Y (MIC of 1 μg/mL to 10 μg/mL) | Y (MIC of 1 μg/mL to 10 μg/mL) | –
O=CN[C@H]1Cc2cccc(C(=O)O)c2OB1O [Compound 4, (R)-3-formamido-2-hydroxy-3,4-dihydro-2H-benzo[e][1,2]oxaborinine-8-carboxylic acid] | Y (key: X: MIC of less than 1 μg/mL; Y: MIC of 1 μg/mL to 10 μg/mL; Z: MIC of greater than 10 μg/mL) | Y (key: X: MIC of less than 1 μg/mL; Y: MIC of 1 μg/mL to 10 μg/mL; Z: MIC of greater than 10 μg/mL) | 28.8 | 1 to 10 | Y (MIC of 1 μg/mL to 10 μg/mL) | – | Y (MIC of 1 μg/mL to 10 μg/mL) | Y (MIC of 1 μg/mL to 10 μg/mL) | X (MIC of less than 1 μg/mL) | Z (key: X: MIC of less than 1 μg/mL; Y: MIC of 1 μg/mL to 10 μg/mL; Z: MIC of greater than 10 μg/mL) | X (MIC of less than 1 μg/mL) | X (MIC of less than 1 μg/mL) | Y (MIC of 1 μg/mL to 10 μg/mL) | Y (MIC of 1 μg/mL to 10 μg/mL) | –
O=C(N[C@H]1Cc2cccc(C(=O)O)c2OB1O)c1cccnc1 [Compound 12, (R)-2-hydroxy-3-(nicotinamido)-3,4-dihydro-2H-benzo[e][1,2]oxaborinine-8-carboxylic acid] | Y (key: X: MIC of less than 1 μg/mL; Y: MIC of 1 μg/mL to 10 μg/mL; Z: MIC of greater than 10 μg/mL) | Y (key: X: MIC of less than 1 μg/mL; Y: MIC of 1 μg/mL to 10 μg/mL; Z: MIC of greater than 10 μg/mL) | – | < 1 | Y (MIC of 1 μg/mL to 10 μg/mL) | – | Y (MIC of 1 μg/mL to 10 μg/mL) | Y (MIC of 1 μg/mL to 10 μg/mL) | X (MIC of less than 1 μg/mL) | – | Y (MIC of 1 μg/mL to 10 μg/mL) | X (MIC of less than 1 μg/mL) | X (MIC of less than 1 μg/mL) | – | 45.7
Nc1nnc(C(=O)N[C@H]2Cc3cccc(C(=O)O)c3OB2O)s1 [Compound 19, (R)-3-(5-amino-1,3,4-thiadiazole-2-carboxamido)-2-hydroxy-3,4-dihydro-2H-benzo[e][1,2]oxaborinine-8-carboxylic acid] | Y (key: X: MIC of less than 1 μg/mL; Y: MIC of 1 μg/mL to 10 μg/mL; Z: MIC of greater than 10 μg/mL) | Y (key: X: MIC of less than 1 μg/mL; Y: MIC of 1 μg/mL to 10 μg/mL; Z: MIC of greater than 10 μg/mL) | – | < 1 | X (MIC of less than 1 μg/mL) | X (MIC of less than 1 μg/mL) | X (MIC of less than 1 μg/mL) | Y (MIC of 1 μg/mL to 10 μg/mL) | X (MIC of less than 1 μg/mL) | Y (key: X: MIC of less than 1 μg/mL; Y: MIC of 1 μg/mL to 10 μg/mL; Z: MIC of greater than 10 μg/mL) | Y (MIC of 1 μg/mL to 10 μg/mL) | Y (MIC of 1 μg/mL to 10 μg/mL) | Y (MIC of 1 μg/mL to 10 μg/mL) | – | 20.8
